In US20070031507A1, “Bactericide for MRSA” (priority 2001, published 2007):

Test system: MRSA (methicillin resistant Staphylococcus aureus)
Assay: Antibacterial test: survival ratio of MRSA versus cultivation time in medium
Type: cell-based
Details: physiological saline, dilution 10^-3, pH 12.7
Description: Antibacterial tests were then performed. The relation between the cultivation time (minute) of MRSA in a cultivation medium and the survival ratio (%) of the bacteria was measured in the test shown in Table 1. The cultivation media of MRSA were physiological saline ([…]), physiological saline containing the bactericide for MRSA of the invention ([…]) and physiological saline containing a reagent NaOH (medium 3). The degree of dilution of both the bactericide for MRSA and the reagent (NaOH) was 10^−3, and pH of both solutions was 12.7.

Q: What does the source list for `[Na+].[OH-]` [Medium 3, NaOH]?
A: survival ratio of the bacteria (cultivation time 0 minutes): 100%; survival ratio of the bacteria (cultivation time 15 minutes): Measurement was impossible; survival ratio of the bacteria (cultivation time 30 minutes): 0.0057%
